Measured values as given in patent US7572923B2, “Indirubin derivatives having anticancer property against human cancer cell line” (Anygen Co., Ltd., priority 2004, dated 2009).

Legend:
[1] = tested on: RK3E-Ras cells; test: Annexin-V-FLUOS/propidium iodide double staining assay for apoptosis; format: cell-based, rat; settings: 1 μM, 24 hours
Description: Annexin-V-FLUOS/propidium iodide double staining assay is a sensitive method for measuring apoptosis in cell level by detecting exposed phosphatidyl serine in apoptotic cell membrane.
RK3E-Ras cell is seeding in 6×10^5 level on cover side. Indirubin derivatives 011, 012 and 030 are treated in 1 μM concentration for 24 hours. As a control, cells without treating any compound are employed. After 24 hours, cells are annexin-V-FLUOS/propidium iodide double stained using annexin-V-FLUOS staining kit. […] It is confirmed that apoptosis of cells treated with indirubin derivatives 011, 012 and 030 is processed.

[2] = tested on: RK3E-ras solid tumor; test: Histological appearance of tumor lesion, H&E stain; format: in vivo, Sprague Dawley rat; settings: rat tumor tissue
Description: (§1) 1×10^7 of RK3E-ras cells is injected to Sprague Dawley rat to induce solid tumor for 5 days and experimental groups of animals are employed by size and volume of tumor in these animals. 100 mM of indirubin derivative is injected to experimental group of animals 5 times in every other day.
To observe histological appearance of tumor lesion after indirubin derivatives 011, 012 and 030 treatment, tumor tissue is immobilized in para-formaldehyde solution and is treated with paraffin. Then, H&E stain is carried out. […] From this experiment, indirubin derivatives of the present invention induce apoptosis of tumor, which results in the suppression of tumor formation in tissue level. FIG. 8 is photography showing the appearance of tumor lesion after treating indirubin derivatives 011, 012 and 030 of present invention.

[3] = tested on: RK3E-ras solid tumor; test: Tumor suppression in RK3E-ras tumor induced rats; format: in vivo; settings: Sprague Dawley rat; for size and volume of tumor: 100 mM injected 5 times in every other day
Description: RK3E cell is one of rat kidney cell and it is immortalized by EA1 oncogene. […] Inventors prepares stable RK3E-k-ras cell line by infection of retroviral expression vector to express mutant k-ras of oncogene. Prepared cell line is intramuscularly infected to Sprague Dawley rat to induce tumor. […] Tumor suppression effect by indirubin derivatives 011, 012 and 030 is measured through tumor induced rats.
as §1
Tumor is measured by vernier caliper and the volume of tumor is calculated by Carlsso calculation method {V=1/2(a.b^2), a: long axis, b: short axis}.

[4] = tested on: human leukemia cell line (HL-60); test: Differentiation with low concentration 1,25-(OH)2D3 or ATRA, NBT reduction method; format: cell-based
Description: (§2) For measuring the differentiation inducing effect to acute bone merrow leukemia cell line (HL-60) by indirubin AGM compound, NBT (nitroblue tetrazolium) reduction reaction method is employed. The leukemia cell line is diluted into 2×10^5 cfu/ml. After treating 20 μM and 1 μM concentrations of test compounds, test plate is incubated for 3 days at 37° C. in 5% CO2 incubator. Incubated cells are washed with phosphate buffered saline (PBS). Then, they are further incubated in PBS solution containing 0.1% NBT and 200 ng/ml of PMA (phorbol 12-myristate 13-acetate) for 30 minutes at 37° C. Incubated cells are centrifuged and collected cells are washed with PBS solution. Using cell number counter, differentiated cells forming nitroblue formazan among total cells are counted.
Next, we test if AGM compound of present invention can synergically induce the differentiation of acute bone merrow leukemia cell line when it is treated with low concentration of 1,25-dihydroxyvitamin D3[1,25-(OH)2D3] or all-trans retinoic acid (ATRA) known as differentiation inducing agent. […] […] As a positive control, conventional differentiation inducing agent is used.

[5] = tested on: human colon cancer cell line (Col2); test: Inhibition of cancer cell line proliferation, Col2; format: cell-based; settings: 96 h, 3˜4 days incubation, absorbance at 515 nm
Description: (§3) For measuring the proliferation inhibition by indirubin compound, the method disclosed in K. Likhitwitayawuid et al. Journal. Nat. Prod. […] Followings are simple description of this method. The cancer cell line is diluted into 5×10^4 cfu/ml. Then, various concentrations of test compounds are added to 96 well microtiter plate containing diluted cell line. After incubating test plate for 3˜4 days at 37° C., the test plate is dried and Tris-base is added. Then, using ELISA plate detector, the absorbance at 515 nm is measured. IC50 is measured by non-linear regression method.

[6] = tested on: human cell line (HT 1080); test: Inhibition of cancer cell line proliferation, HT 1080; format: cell-based; settings: HT-1080, 96 h, read-out: IC50 HT108
Description: as §3

[7] = tested on: human lung cancer cell line (A549); test: Inhibition of cancer cell line proliferation, A549; format: cell-based; settings: 96 h, 3˜4 days incubation, absorbance at 515 nm
Description: as §3

[8] = tested on: RK3E-Ras cells; test: Cell viability by MTT assay; format: cell-based, rat; settings: 1, 10, 20, 40 μM, 6, 12, 24, 48 hours
Description: To measure the influence to cell viability by indirubin derivative, RK3E-Ras cell, 1×10^5/well is seeding on 24 well plate. After incubation of cells for 12˜24 hours, indirubin derivative 011 in various concentration (1 μM, 10 μM, 20 μM, 40 μM) are treated for 6, 12, 24, 48 hours respectively. As control, cells without treating any compound are employed. […] FIG. 1 show the decline of cell viability after treatment of indirubin derivative 011.
According to the same condition in Example 3, other indirubin derivative 012, 030 are treated to measure the influence to cell viability.

[9] = tested on: human cancer cell line; test: Inhibition of cancer cell line proliferation, overall conclusion; format: cell-based; settings: conclusion from Table 2
Description: as §3

[10] = tested on: human stomach cancer cell line (SNU-638); test: Inhibition of cancer cell line proliferation, SNU-638; format: cell-based; settings: 96 h, 3˜4 days incubation, absorbance at 515 nm
Description: as §3

[11] = tested on: human leukemia cell line (HL-60); test: Inhibition of cancer cell line proliferation, HL-60; format: cell-based; settings: HL-60, 96 h, HL60, 3˜4 days incubation, absorbance at 515 nm
Description: as §3

[12] = tested on: leukemia cell line (HL-60); test: Differentiation inducing effect, NBT reduction method; format: cell-based, human; settings: for % of Differentiation: 3 days
Description: as §2, with “After treating 20 μM and 1 μM concentrations of test compounds, test plate is incubated for 3 days at 37° C. in 5% CO2 incubator.” left out

[13] = tested on: human abdominal cavity cancer cell line (HT 1080); test: Inhibition of cancer cell line proliferation, HT 1080; format: cell-based; settings: HT-1080, 96 h, HT108, 3˜4 days incubation, absorbance at 515 nm
Description: as §3

[14] = tested on: RK3E-Ras cells; test: DNA fragmentation, agarose gel electrophoresis; format: cell-based, rat; settings: 10 μM
Description: We test if the decline of cell viability by indirubin derivative 011 relates to apoptosis of cell or not. Genomic DNA from cells treated with indirubin derivative 011 is isolated and fragmented. RK3E-Ras cell, 6×10^5/well is seeding on 6 well plate. After incubation of cells for 12˜24 hours, 10 μM of indirubin derivative 011 is treated with cells. As a control, cells without treating any compound or cells treating DMSO in same concentration are employed.

[15] = 1 μM compound with 5 nM of 1,25-(OH)2D3
[16] = 1 μM compound with 50 nM of ATRA
[17] = 0.2 μM compound with 5 nM of 1,25-(OH)2D3
[18] = 0.2 μM compound with 50 nM of ATRA

For `O=C1Nc2ccc(F)cc2C1=C1Nc2ccccc2C1=NO` [AGM012, 5′-fluoro-1H,1′H-[2,3′] biindolylidene-3,2′-dione 3-oxime], the “annexin-V green fluorescence staining versus control” value [1] was “far more stained by green fluorescence than cells of control group”, the “histological appearance of tumor lesion” value [2] was “necrosis or calcification of tumor is observed” and the “size and volume of tumor” value [3] was “decrease”. The “% of Differentiation, 1,25-(OH)2D3” value [4, 15] was 24.29 ± 1.34%, the “% of Differentiation, all-trans RA” value [4, 16] was 54.81 ± 1.65% and the IC50 [5] was 64.2 µM. For the same molecule, the IC50 [6] was 3.41 µM, the IC50 [7] was 13.2 µM and the “cell viability according to increase of compound concentration” value (shortened to “cell viability according to increase”) [8] was “rapid decline of cell viability”. The “inhibitor against proliferation of human cancer cell line” value (from here on “inhibitor against proliferation”) [9] was “effective inhibitor”, the IC50 [10] was 2.06 µM and the IC50 [11] was 89.3 µM. The “% of Differentiation” value ([12]; 1 μM compound) was 32.71 ± 1.73%.
`CC(C)(C)C(=O)Nc1ccc2c(c1)C(=C1Nc3ccccc3C1=NO)C(=O)N2` [AGM030, 5-NH-trimethylacetyl-indirubin-3-oxime] was tested, and the “annexin-V green fluorescence staining versus control” value [1] was “far more stained by green fluorescence than cells of control group”, the “histological appearance of tumor lesion” value [2] was “necrosis or calcification of tumor is observed” and the “size and volume of tumor” value [3] was “decrease”. The “cell viability according to increase” value [8] was “rapid decline of cell viability”.
With `Nc1ccc2c(c1)C(=C1Nc3ccccc3C1=O)C(=O)N2` [AGM029, 5′-amino-1H,1′H-[2,3′] biindolylidene-3,2′-dione] the “% of Differentiation, 1,25-(OH)2D3” value [4, 15] was 79.03 ± 0.55%, the “% of Differentiation, all-trans RA” value [4, 16] was 78.81 ± 0.77% and the IC50 [5] was 31.2 µM. For the same molecule, the IC50 [6] was 5.41 µM, the IC50 [7] was 33.2 µM and the “inhibitor against proliferation” value [9] was “effective inhibitor”. The IC50 [10] was 21.1 µM, the IC50 [11] was 59.3 µM and the “% of Differentiation” value ([12]; 1 μM compound) was 45.05 ± 0.59%. For the same molecule, the “induction of differentiation” value ([12]; at 20 μM concentration) was “excellently induces the differentiation”.
With `O=C1Nc2ccc([N+](=O)[O-])cc2C1=C1Nc2ccc(Br)cc2C1=NO` [AGM023, 5-bromo-5′-nitro-1H,1′H-[2,3′] biindolylidene-3,2′-dione 3-oxime] the “cytotoxicity” value [4] was “some cytotoxicity”, the “induction of differentiation with conventional differentiation inducing agent” value ([4]; 0.2 μM) was “high induction of differentiation” and the “% of Differentiation, 1,25-(OH)2D3” value [4, 17] was 89.76 ± 0.88%. For the same molecule, the “% of Differentiation, all-trans RA” value [4, 18] was 90.85 ± 0.36%, the IC50 [5] was 44.2 µM and the IC50 [13] was 4.41 µM. The IC50 [7] was 23.2 µM, the “inhibitor against proliferation” value [9] was “effective inhibitor” and the IC50 [10] was 12.1 µM. For the same molecule, the IC50 [11] was 69.3 µM and the “% of Differentiation” value ([12]; 0.2 μM compound) was 18.38 ± 0.27%.
With `O=C1Nc2ccc([N+](=O)[O-])cc2C1=C1Nc2ccccc2C1=NO` [AGM011, 5′-nitro-1H,1′H-[2,3′] biindolylidene-3,2′-dione 3-oxime] the “annexin-V green fluorescence staining versus control” value [1] was “far more stained by green fluorescence than cells of control group”, the “progress of apoptosis” value ([1]; FIG. 4) was “fast processed” and the “histological appearance of tumor lesion” value [2] was “necrosis or calcification of tumor is observed”. The “size and volume of tumor” value [3] was “decrease”, the “suppression against tumor (tumor volume)” value ([3]; tumor volume by vernier caliper, V=1/2(a.b^2)) was 80% and the “% of Differentiation, 1,25-(OH)2D3” value [4, 17] was 31.79 ± 0.87%. The “% of Differentiation, all-trans RA” value [4, 18] was 34.87 ± 0.74%, the “DNA fragmentation” value ([14]; 12 hours) was “some DNA fragmentation occurs” and the “DNA fragmentation” value ([14]; 24 hours) was “clear DNA fragmentation is detected”. It also gave an IC50 [5] of 25.5 µM, an IC50 [13] of 5.87 µM and an IC50 [7] of 5.43 µM. For the same molecule, the “cell viability according to increase” value [8] was “rapidly declined”, the “inhibitor against proliferation” value [9] was “effective inhibitor” and the IC50 [10] was 1.21 µM. For the same molecule, the IC50 [11] was 9.23 µM and the “% of Differentiation” value ([12]; 0.2 μM compound) was 24.02 ± 0.85%.
In the case of `O=C1Nc2ccc(Cl)cc2C1=C1Nc2ccccc2C1=NO` [AGM014, 5′-chloro-1H,1′H-[2,3′] biindolylidene-3,2′-dione 3-oxime], the “% of Differentiation, 1,25-(OH)2D3” value [4, 15] is reported as 21.72 ± 1.22%, the “% of Differentiation, all-trans RA” value [4, 16] is reported as 72.40 ± 3.05% and the IC50 [5] is reported as 16.8 µM. The IC50 [13] was 10.8 µM, the IC50 [7] was 12.1 µM and the “inhibitor against proliferation” value [9] was “effective inhibitor”. For the same molecule, the IC50 [10] was 6.22 µM, the IC50 [11] was 4.81 µM and the “% of Differentiation” value ([12]; 1 μM compound) was 40.97 ± 1.19%.
In the case of `O=C1Nc2ccc(F)cc2C1=C1Nc2ccccc2C1=O` [AGM010, 5′-fluoro-1H,1′H-[2,3′] biindolylidene-3,2′-dione], the “% of Differentiation, 1,25-(OH)2D3” value [4, 15] is reported as 78.44 ± 6.88%, the “% of Differentiation, all-trans RA” value [4, 16] is reported as 75.08 ± 6.80% and the IC50 [5] is reported as over 100 µM. For the same molecule, the IC50 [6] was over 100 µM, the IC50 [7] was 96.8 µM and the IC50 [10] was 40.3 µM. For the same molecule, the IC50 [11] was over 100 µM, the “% of Differentiation” value ([12]; 1 μM compound) was 7.53 ± 1.02% and the “% of Differentiation” value ([12]; 20 μM compound) was 13.01 ± 0.14%.
